Structures are written as SMILES.

The assay deals with Protein disulfide-isomerase (Homo sapiens) (UniProt P07237). Nature of the assay: PDI inhibitors, insulin turbidity readout, confirmation, biochemical, dry powder samples, set 2 (AID 652146). As to conditions: PDI insulin reduction turbidity, plate reader.
Sequence of Protein disulfide-isomerase (Homo sapiens) (P07237 whole entry, looked up): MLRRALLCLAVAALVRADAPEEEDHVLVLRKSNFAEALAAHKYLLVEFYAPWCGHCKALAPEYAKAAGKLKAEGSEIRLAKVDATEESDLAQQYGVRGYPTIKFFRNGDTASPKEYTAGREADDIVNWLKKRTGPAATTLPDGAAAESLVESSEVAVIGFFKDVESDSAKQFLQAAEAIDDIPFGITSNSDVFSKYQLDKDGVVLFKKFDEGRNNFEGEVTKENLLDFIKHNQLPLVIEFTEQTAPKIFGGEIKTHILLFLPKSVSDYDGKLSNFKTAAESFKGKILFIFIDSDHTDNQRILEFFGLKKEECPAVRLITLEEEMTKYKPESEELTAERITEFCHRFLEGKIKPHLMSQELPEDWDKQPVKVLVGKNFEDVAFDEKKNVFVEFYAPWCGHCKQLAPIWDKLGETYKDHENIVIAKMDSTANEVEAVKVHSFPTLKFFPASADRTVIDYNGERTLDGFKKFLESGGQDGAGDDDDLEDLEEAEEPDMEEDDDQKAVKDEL

Consider `CCOC(=O)C1(CCOc2ccccc2)CCN(Cc2ccc(O)c(Cl)c2)CC1`, for which the AC50 – broadly, the midpoint of the concentration-response curve, whichever way the signal moves – was 0.1 µM.

The values are drawn from PubChem BioAssay AID652146 (Broad Institute, 2013).
